Where two headings read alike, the source gives them in different places.
Experiments:
[1] = Fluoride binding of [Sc(PC2AM^nBu)]^+ (ternary complex stability), 19F NMR titration; assay type: physicochemical; details: stability constant of the ternary fluoride complex, 19F NMR, pH = 5.2, I = 0.15 M NaCl, 25 °C
From the text: Sc(III) is a typical “hard” cation, forming very stable complexes with fluoride anion.^[ [51], [52] ^] […] The formation of the ternary [Sc(PC2AM^nBu)(F)] complex can be followed by […], as two sets of signals (Δδ ∼ 20 Hz) indicate a slow exchange regime on the […] time scale (Figure S16). Measuring the intensities of the free and bound fluoride signals, the stability constant (Eqn. 6) of the [Sc(PC2AM^nBu)(F)] complex (Eqn. 5) can be calculated (Table S1).
(5) [Sc(PC2AM^nBu)]^++F^−⇌[Sc(PC2AM^nBu)(F)] (6) KScLF=ScPC2AM^nBuF/[ScPC2AM^nBu^+]F^−
Table S1. Summary of data used for the calculation of the stability constant, log K[Sc(PC2AM^nBu)(F)] by titration of 0.005M [Sc(PC2AM^nBu)]^+ parent complex with different amounts of F^- (0.005 - 0.01 M concentration range) followed by 376.4 MHz ^19F NMR (I = 0.15 M NaCl, c Sc(PC2AM^nBu) = 5 mM, pH=5.20, T= 298 K).

[2] = Time course of Sc(III) complex formation, 45Sc NMR; assay type: physicochemical; details: ‐log[H^+] = 1.28, 25 °C
Experimental: The time course of complex formation of PC2AM^nBu and PCTA ligands with Sc(III) ion was investigated by ^45Sc‐NMR under acidic conditions (cSc = cligand = 10 mM and 9.5 mM, respectively, ‐log[H^+] = 1.28). The decrease of the narrow signal of the free Sc(III) ion was monitored as a function of time. […] The kinetic measurements of formation could be seen in Figures S18 and S19. The complexation for the [Sc(PCTA)] chelate at pH = 1.28 and 25 °C took about 300 minutes to reach the equilibrium, whereas for the [Sc(PC2AM^nBu)]^+ complex it took a bit longer time under these conditions. (In order to confirm that the samples reached the equilibrium, we have repeated the ^45Sc NMR study for both samples after a few days when the signal of the free Sc(III) was absent, and only the signals of the complexes were detected.) The detailed study of formation kinetics was not our aim in this project. One can expect that the reaction follows the well‐known mechanisms of M(III) ‐ macrocyclic APC systems ^[ [54] ^]: formation of a protonated intermediate in fast pre‐equilibrium followed by a slow, base‐catalyzed deprotonation/structural rearrangement as a rate‐determining step. The intermediate is named also as “out‐of‐cage complex.”^[ [55] ^] Our experimental curves are likely in accordance with this mechanism. Fitting the measured data for the free Sc(III) signals by a monoexponential function gives the rate constant k obs = (1.04 ± 0 .05) x 10^−4 s^−1 for the [Sc(PC2AM^nBu)]^+ and k obs = (2.51 ± 0.12) x 10^−4 s^−1 for the [Sc(PCTA)] complex. […] The relatively fast complex formation at the given acidic condition is very encouraging for the Sc(III) labeling experiments.
^45Sc NMR measurements (97 MHz) were performed on a Bruker DRX 400 (9.4 T) spectrometer equipped with a Bruker VT‐1000 thermocontroller and a BB inverse z‐gradient probe (5 mm). The kinetic experiments were performed at 25 °C in aqueous solution, using D2O (10% v/v) as a lock solvent. Typical parameters for 45Sc NMR measurements were used: TD = 32k, p1 = 15.6 µs (90°), d 1 = 0.1 s. The formation reactions of the [Sc(PC2AM^nBu)]^+ and [Sc(PCTA)] complexes were monitored by ^45Sc NMR spectroscopy in two sample types: one containing 10.0 mM PC2AM^nBu and ScCl3 / 9.5 mM […] and ScCl3. In both cases, the total acid concentration corresponded to a pH of 1.28. Obtained monoexponential curves (signal area of free Sc(III) vs. time) were fitted using Scientist software ^[ [62] ^] to determine the formation rate.

[3] = I = 0.15 M NaCl, T = 25 °C; cited from earlier work
[4] = pH‐potentiometric determination of ligand protonation constants; assay type: physicochemical; details: I = 1.00 M NaCl, T = 25 °C
Experimental: The equilibrium study of the PC2AM^nBu ligand has been started by determining the protonation constants in 0.15 M and 1.00 M NaCl ionic strength. (As the stability of the Sc(III) complex was determined in 1.00 M ionic strength, we had to perform the pH‐potentiometric titration of ligands using 1.00 M ionic strengths also.) The results of pH‐potentiometric measurement are shown in Table 1, where the corresponding data for 3,9‐PC2A,^[ [42] ^] PCTA ^[ [46] ^] and PC2AM‐NI ligands determined under identical conditions are also presented. Knowledge of the protonation constants defined by Eqn. 1 and 2 are essential for the calculation of the stability constants of the Sc(III) complexes:
(1) PC2AM^nBu^2−+nH^+⇌Hn(PC2AM^nBu)^−2+n (2) βn=HnPC2AM^nBu^−2+n/PC2AM^nBu^2−H^+^n
The protonation constants of the ligands, as well as the concentrations of the ligand stock solutions, were determined by pH‐potentiometric method using a Metrohm 785 DMP Titrino automatic titrator using a Metrohm 6.00234.100 combined glass electrode. The titrations were carried out in the pH range 1.75–11.80 and the pH electrode was calibrated by a two‐point calibration routine with the use of 0.05 M KH‐phthalate (pH = 4.005) and 0.01 M borax (pH = 9.177 buffers. The samples were stirred at 25 °C (±0.1 °C) and N2 gas bubbled into the system to ensure inert conditions and to eliminate the effect of the presence of CO2. For the calculation of [H^+] from the measured pH values, the method proposed by Irving et al. was applied.^[ [61] ^] For this, a 0.01 M HCl solution was titrated with the standardized NaOH solution in the presence of 0.15 M NaCl ionic strength at 25 °C. The differences between the measured (pHread) and calculated pH (‐log[H^+]) values were used to obtain the equilibrium H^+ concentration from the pHmeas values during the titrations. By fitting the resulting titration curves (pH – V (NaOH) data pairs) with the PSEQUAD program, the protonation constants of the ligands were determined.^[ [47] ^] The titration of the [Sc(PC2AM^nBu)]^+ with NaOH was performed with the same method by applying very similar conditions.

| log K ScLF [1] | log K 1 ^H [4] | log K 2 ^H [4] | log K 3 ^H [4] | log K 4 ^H [4] | log β 2 ^H [4] | Structure (SMILES) | half‐life of the complex formation reaction (t 1/2 = ln2 / k obs) [2] [h] | log K 1 ^H [3] | log K 2 ^H [3] | log K 3 ^H [3] | log K 4 ^H [3] | log β 2 ^H [3] |
| --- | --- | --- | --- | --- | --- | --- | --- | --- | --- | --- | --- | --- |
| 2.5(2) |  |  |  |  |  | CCCCNC(=O)CN1CCN(CC(=O)[O-])Cc2cccc(n2)CN(CC(=O)[O-])CC1.[Sc+3] [[Sc(PC2AM^nBu)]^+] | 1.83 |  |  |  |  |  |
|  | 9.22(6) | 7.30(8) | 4.09 (9) | 1.42(8) | 16.52 | O=C(O)CN1CCN(CC(=O)O)Cc2cccc(n2)CN(CC(=O)O)CC1 [PCTA, reference compound] |  | 9.97 | 6.73 | 3.22 | 1.40 | 16.70 |
